The text below walks through data of ChEMBL document CHEMBL1201862, “PubChem BioAssay data set” (2004).

One data set has as its system INS1. The data set is described as follows: beta cell apoptosis inhibitors, cytokine rescue, dose response, luminescence, retest (AID 449756).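 Note: cell death triggered by IL-1 beta plus TNF-alpha plus IFN-gamma mixture; protective hits raise ATP signal compared with cytokine alone wells.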 Conditions: Rattus norvegicus. It is filed as functional, cell-based.
In data set [1] the test system is Jurkat. The experiment in a line: antigen receptor-induced NF-kB inhibitors, dose response, Jurkat, luciferase reporter, luminescence, B- and T-cell (AID 489004).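 Note: NF-kB luciferase reporter Jurkat cells stimulated with PMA plus ionomycin.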 Conditions: Homo sapiens. It is filed as functional, cell-based. A general note: A reporter such as luciferase makes a cellular process visible.
Data set [2] in a line: cytotoxicity in HEK-293T NF-kB-Luc cells, dose response, cytotoxicity control for B/T-cell NF-kB inhibitor project, cell-based, uHTS hits (AID 489019).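 Note: IC50 reflects cytotoxicity as loss of cell viability.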 The class given is functional.
Data set [3] deals with T1, Beta-adrenergic receptor kinase 1 (Homo sapiens, UniProt P25098). The data set is described as follows: GRK2 inhibitors displacing RNA aptamer, dose response, biochemical, flow cytometry beads, FAM-aptamer, powder set 1 (AID 588720). Background: In flow cytometry, cells or beads pass a laser one at a time.
T1 sequence (P25098 whole entry): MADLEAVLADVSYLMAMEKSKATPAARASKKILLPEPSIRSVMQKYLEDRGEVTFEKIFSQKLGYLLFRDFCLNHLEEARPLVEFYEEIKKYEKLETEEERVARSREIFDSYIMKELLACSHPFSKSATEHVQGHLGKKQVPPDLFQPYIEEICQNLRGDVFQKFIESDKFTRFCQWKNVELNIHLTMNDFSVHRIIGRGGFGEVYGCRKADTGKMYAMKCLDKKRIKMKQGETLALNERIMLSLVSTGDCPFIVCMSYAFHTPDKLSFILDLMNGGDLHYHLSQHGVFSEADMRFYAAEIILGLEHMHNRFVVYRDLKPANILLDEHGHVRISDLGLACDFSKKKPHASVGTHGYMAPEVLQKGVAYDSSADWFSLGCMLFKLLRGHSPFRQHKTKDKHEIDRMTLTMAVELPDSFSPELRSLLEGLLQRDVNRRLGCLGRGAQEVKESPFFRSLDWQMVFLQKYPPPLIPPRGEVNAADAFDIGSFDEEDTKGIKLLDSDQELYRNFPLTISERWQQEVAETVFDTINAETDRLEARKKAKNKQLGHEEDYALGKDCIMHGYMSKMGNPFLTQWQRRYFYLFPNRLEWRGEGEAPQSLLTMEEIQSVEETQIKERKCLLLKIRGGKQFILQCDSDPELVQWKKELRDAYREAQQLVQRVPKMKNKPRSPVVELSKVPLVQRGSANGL
The target in data set [4] is Voltage-gated inwardly rectifying potassium channel KCNH2 (Homo sapiens, UniProt Q12809). Conditions: Potency.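 Note: confirmatory quantitative high-throughput screen measuring inhibition of hERG channel activity.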
Another data set concerns the target Cytochrome P450 2D6 (Homo sapiens, UniProt P10635).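 Note: CYP2D6 member of a cytochrome P450 panel assay.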
The target in a further data set is T2, Cytochrome P450 1A2 (Homo sapiens, UniProt P05177).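 Note: PubChem cytochrome P450 panel assay, CYP1A2 panel member.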
T2 sequence (P05177 whole entry): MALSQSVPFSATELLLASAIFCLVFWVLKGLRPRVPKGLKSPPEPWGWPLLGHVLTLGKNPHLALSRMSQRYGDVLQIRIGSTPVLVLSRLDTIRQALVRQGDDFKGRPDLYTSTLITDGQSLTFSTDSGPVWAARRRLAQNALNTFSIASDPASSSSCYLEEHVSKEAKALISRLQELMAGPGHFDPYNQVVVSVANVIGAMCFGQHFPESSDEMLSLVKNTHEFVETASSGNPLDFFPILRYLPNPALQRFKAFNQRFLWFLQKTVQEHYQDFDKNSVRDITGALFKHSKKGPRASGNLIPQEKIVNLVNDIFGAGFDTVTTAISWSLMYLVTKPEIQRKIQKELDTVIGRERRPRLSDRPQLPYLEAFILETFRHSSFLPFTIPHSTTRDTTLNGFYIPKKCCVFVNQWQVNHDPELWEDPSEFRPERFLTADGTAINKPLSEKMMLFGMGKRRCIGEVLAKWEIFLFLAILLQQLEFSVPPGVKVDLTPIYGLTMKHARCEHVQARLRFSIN

For data set [5], the system named is Jurkat. The data set is described as follows: SAR Analysis of small molecule inhibitors of […] specific antigen receptor-induced NF-kB activation in a Jurkat cell line using a luminescence assay - Set 3. [Related pubchem assays (depositor defined):AID435022, AID435025, AID465]. It is filed as functional, cell-based. Conditions: Homo sapiens.
The test system of data set [6] is HEK293. The data set is described as follows: cytotoxicity in HEK293T NF-kB-Luc cells, SAR follow-up, cytotoxicity control for NF-kB activator project, cell-based, resazurin fluorescence (AID 493251). Particulars: Homo sapiens. The class given is functional. On the technique in general: Resazurin is reduced to fluorescent resorufin, in cell work by metabolically active cells.

Data set [7] concerns HEK293. The data set is described as follows: SAR Analysis of small molecule inhibitors of B-cell specific antigen receptor-induced NF-kB activation in a HEK-293T cell line using a luminescence assay - Set 2. [Related pubchem assays (depositor defined):AID435022, AID435025, AID489021]. It is filed as functional, cell-based. Particulars: Homo sapiens.
The subject of a further data set is BJ. The data set is described as follows: cytotoxicity toward Ras-transformed BJeLR fibroblasts, dose response, cell-based, alamar blue fluorescence, cherrypicked samples (AID 2631).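 Note: confirmatory dose-response assay in RAS-dependent BJ fibroblasts engineered with TERT, LT and ST, with cytotoxicity read by fluorescence.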 Particulars: Homo sapiens. It is filed as functional.
In data set [8] the target is DNA damage-inducible transcript 3 protein (Mus musculus, UniProt P35639). The class given is functional, Cricetulus griseus.
Sequence of DNA damage-inducible transcript 3 protein (P35639 whole entry): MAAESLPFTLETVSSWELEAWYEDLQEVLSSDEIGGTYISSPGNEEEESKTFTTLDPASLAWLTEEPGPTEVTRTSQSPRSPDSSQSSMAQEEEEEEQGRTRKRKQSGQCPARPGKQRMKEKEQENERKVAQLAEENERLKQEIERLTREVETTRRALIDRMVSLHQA
For a further data set, the target named is X-box-binding protein 1 (Homo sapiens, UniProt P17861). The class given is functional, Cricetulus griseus.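 Note: confirmatory dose-response counter-screen serving a CHOP assay.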
Sequence of X-box-binding protein 1 (P17861 whole entry): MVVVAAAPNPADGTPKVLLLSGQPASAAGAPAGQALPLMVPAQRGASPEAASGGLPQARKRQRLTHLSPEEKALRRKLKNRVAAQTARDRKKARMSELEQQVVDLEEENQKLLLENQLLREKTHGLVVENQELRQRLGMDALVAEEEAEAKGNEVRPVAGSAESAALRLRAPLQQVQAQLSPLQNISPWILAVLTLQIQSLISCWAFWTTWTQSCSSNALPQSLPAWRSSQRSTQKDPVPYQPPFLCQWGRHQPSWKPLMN
Another data set has as its system HeLa. The data set is described as follows: Cytotoxicity counterscreen assay for transcriptional activators of heat shock protein 70 (Hsp70). [Related pubchem assays: 1203, 1252 ]. The class given is functional. Conditions: Homo sapiens.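 Note: cells exposed to compound for 16 hours before readout.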
Data set [9] has as its target Heat shock protein HSP 90-alpha (Homo sapiens, UniProt P07900). It is filed as functional, organism-based.
The target of data set [10] is Photoreceptor-specific nuclear receptor (Homo sapiens, UniProt Q9Y5X4). The data set is described as follows: NR2E3 inverse agonists, dose response, biochemical, TR-FRET (AID 463256). It is filed as functional.
Sequence of Photoreceptor-specific nuclear receptor (Q9Y5X4 whole entry, the tested form may be a part): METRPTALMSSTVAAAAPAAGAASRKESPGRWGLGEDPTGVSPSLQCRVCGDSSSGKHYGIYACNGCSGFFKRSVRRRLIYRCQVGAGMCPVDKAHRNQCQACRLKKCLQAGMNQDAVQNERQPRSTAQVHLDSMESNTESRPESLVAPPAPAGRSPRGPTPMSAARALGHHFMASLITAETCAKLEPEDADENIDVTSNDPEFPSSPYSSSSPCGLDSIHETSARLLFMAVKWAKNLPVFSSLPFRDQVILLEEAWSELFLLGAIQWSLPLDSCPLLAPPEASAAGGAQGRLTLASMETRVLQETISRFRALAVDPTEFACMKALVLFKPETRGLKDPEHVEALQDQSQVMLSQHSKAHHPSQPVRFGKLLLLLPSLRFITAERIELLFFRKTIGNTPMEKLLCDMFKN
The target in data set [11] is T3, Carboxy-terminal domain RNA polymerase II polypeptide A small phosphatase 1 (Homo sapiens, UniProt Q9GZU7).
T3 sequence (Q9GZU7 whole entry): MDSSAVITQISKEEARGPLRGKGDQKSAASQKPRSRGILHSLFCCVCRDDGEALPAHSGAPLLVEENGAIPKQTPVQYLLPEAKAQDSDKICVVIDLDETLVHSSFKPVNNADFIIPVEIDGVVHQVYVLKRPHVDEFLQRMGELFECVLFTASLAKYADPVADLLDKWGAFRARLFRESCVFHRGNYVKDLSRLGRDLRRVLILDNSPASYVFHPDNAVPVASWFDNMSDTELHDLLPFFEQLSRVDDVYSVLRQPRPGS
The experiment in a line: inhibitors of CTDSP1, concentration-response testing, biochemical assay, absorbance-based, actives from ultra-high-throughput screening (AID 540297). It is filed as functional.

The target of data set [12] is T4, Heat shock factor protein 1 (Mus musculus, UniProt P38532).
T4 sequence (P38532 whole entry): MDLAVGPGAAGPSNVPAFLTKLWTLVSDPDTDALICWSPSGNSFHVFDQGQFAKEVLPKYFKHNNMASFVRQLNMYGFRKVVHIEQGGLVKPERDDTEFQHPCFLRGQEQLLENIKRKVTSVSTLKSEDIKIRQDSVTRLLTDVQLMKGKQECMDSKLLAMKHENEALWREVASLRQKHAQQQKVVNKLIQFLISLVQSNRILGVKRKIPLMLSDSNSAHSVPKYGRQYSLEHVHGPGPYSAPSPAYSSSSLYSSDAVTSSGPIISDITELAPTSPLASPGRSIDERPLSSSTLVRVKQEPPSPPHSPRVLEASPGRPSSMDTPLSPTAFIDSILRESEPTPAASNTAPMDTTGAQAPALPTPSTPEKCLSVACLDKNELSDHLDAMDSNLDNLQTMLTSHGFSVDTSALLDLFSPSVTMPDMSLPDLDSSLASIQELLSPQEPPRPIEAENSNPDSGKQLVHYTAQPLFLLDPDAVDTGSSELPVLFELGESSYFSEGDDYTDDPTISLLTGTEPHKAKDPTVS
The experiment in a line: inhibition of MG132-induced HSE-luciferase signal, confirmation, cell-based, NIH3T3, luminescence, dose retest (AID 2382).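 Note: NIH3T3 fibroblasts with HSF1-driven luciferase reporter stressed by proteasome inhibitor MG132; luminescence from HSF1-driven luciferase expression after 8 hours of MG132 stress.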 The class given is functional.

Data set [13] concerns the target Peroxisome proliferator-activated receptor gamma/Nuclear receptor corepressor 2 (Homo sapiens, UniProt P37231+Q9Y618). The data set is described as follows: Counterscreen for NR2E3 inverse agonists: TR-FRET-based biochemical high throughput dose response assay to identify inverse agonists of the interaction between peroxisome proliferator-activated receptor gamma (PPARg) and nuclear receptor co-repressor 2 (NCOR2). It is filed as functional.

Data set [14] deals with T1, Beta-adrenergic receptor kinase 1. The experiment in a line: aptamer displacement from bead-bound GRK2 – biochemical, cherry pick 1, bead flow cytometry, dose response (AID 504500).
The subject of another data set is A-375. The experiment in a line: MITF: Counter assay: A375 proliferation Measured in Cell-Based System Using Plate Reader - 2084-03_Inhibitor_Dose_DryPowder_Activity. [Related pubchem assays (depositor defined):AID488944]. It is filed as functional. Particulars: Homo sapiens.
Data set [15] can be described thus: microbe, parasite or virus in culture. It is filed as functional. Particulars: Mycobacterium tuberculosis.
For data set [16], the target named is Hepatocyte nuclear factor 4-alpha (Homo sapiens, UniProt P41235). The class given is functional, cell-based.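 Note: biochemical luminescence-based dose-response counterscreen measuring inhibition of HNF4 dimerization, run alongside a screen for blockers of ABHD5–perilipin-5 interaction; split luciferase complementation of HNF4 fusion proteins in cell lysate measuring dimerization.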
Sequence of Hepatocyte nuclear factor 4-alpha (P41235 whole entry, the tested form may be a part): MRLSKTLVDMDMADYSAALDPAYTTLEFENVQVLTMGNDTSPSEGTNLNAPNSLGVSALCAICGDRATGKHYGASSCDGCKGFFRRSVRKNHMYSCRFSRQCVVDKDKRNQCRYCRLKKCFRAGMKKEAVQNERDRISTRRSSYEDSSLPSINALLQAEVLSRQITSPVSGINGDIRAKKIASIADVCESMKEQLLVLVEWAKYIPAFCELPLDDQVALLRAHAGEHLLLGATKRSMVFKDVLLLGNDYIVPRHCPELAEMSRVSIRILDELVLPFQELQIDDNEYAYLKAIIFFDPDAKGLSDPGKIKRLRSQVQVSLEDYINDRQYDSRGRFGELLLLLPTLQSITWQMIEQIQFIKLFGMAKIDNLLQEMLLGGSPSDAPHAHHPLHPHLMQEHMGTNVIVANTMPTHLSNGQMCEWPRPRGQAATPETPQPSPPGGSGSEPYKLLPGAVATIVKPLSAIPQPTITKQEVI
A further data set addresses Beta-galactosidase (Escherichia coli, UniProt Q8VNN2). The data set is described as follows: PubChem AID 485352. The class given is functional.
Data set [17] addresses Type-1 angiotensin II receptor (Homo sapiens, UniProt P30556). The data set is described as follows: AT1 receptor antagonists, dose response, selectivity assay for APJ receptor antagonist project, cell-based, uHTS hits (AID 463214).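 Note: antagonist potency against angiotensin II stimulated AT1 response.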 It is filed as functional.
Data set [18] addresses Potassium voltage-gated channel subfamily KQT member 2 (Rattus norvegicus, UniProt O88943). The data set is described as follows: KCNQ2 channel activators, analog series, SAR follow-up, automated patch clamp, KCNQ2-CHO cells (AID 493113). The class given is functional.
The target of data set [19] is Sphingosine 1-phosphate receptor 2 (Homo sapiens, UniProt O95136). The data set is described as follows: Late stage counterscreen assay for S1P4 antagonists: Fluorescence dose response cell-based screening assay for antagonists of the Sphingosine 1-Phosphate Receptor 2 (S1P2). [Related pubchem assays (depositor defined):AID1510, AID1524, AID1692, AID1853, AID2332, AID489009, AID489017]. It is filed as functional.
Sequence of Sphingosine 1-phosphate receptor 2 (O95136 whole entry): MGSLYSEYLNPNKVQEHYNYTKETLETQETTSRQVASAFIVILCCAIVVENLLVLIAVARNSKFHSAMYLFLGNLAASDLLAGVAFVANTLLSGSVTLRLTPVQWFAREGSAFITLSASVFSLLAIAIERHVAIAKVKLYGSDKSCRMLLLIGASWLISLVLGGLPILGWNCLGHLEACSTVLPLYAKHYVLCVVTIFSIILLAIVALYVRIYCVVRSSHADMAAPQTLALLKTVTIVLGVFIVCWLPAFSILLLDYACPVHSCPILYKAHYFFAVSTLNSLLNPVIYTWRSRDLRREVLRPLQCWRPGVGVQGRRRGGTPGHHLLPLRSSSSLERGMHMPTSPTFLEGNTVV

In data set [20] the target is Sphingosine 1-phosphate receptor 5 (Homo sapiens, UniProt Q9H228). The data set is described as follows: Late stage counterscreen assay for S1P4 antagonists: Fluorescence dose response cell-based screening assay for antagonists of the Sphingosine 1-Phosphate Receptor 5 (S1P5). [Related pubchem assays (depositor defined):AID1510, AID1524, AID1692, AID1853, AID2332, AID489009, AID489017]. The class given is functional.
Sequence of Sphingosine 1-phosphate receptor 5 (Q9H228 whole entry): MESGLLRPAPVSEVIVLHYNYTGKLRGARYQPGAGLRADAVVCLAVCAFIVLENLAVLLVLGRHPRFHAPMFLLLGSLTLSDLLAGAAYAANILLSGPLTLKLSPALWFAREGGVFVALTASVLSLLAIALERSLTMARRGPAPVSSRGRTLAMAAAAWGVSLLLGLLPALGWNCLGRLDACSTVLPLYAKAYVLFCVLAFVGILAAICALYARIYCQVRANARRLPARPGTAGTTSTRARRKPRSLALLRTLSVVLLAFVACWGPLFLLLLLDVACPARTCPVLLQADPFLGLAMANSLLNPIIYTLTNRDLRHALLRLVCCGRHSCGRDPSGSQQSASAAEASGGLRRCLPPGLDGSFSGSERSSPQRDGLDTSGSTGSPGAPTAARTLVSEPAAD

Data set [21] has as its target Sphingosine 1-phosphate receptor 3 (Homo sapiens, UniProt Q99500). The experiment in a line: Late stage counterscreen assay for S1P4 antagonists: Fluorescence dose response cell-based screening assay for antagonists of the Sphingosine 1-Phosphate Receptor 3 (S1P3). [Related pubchem assays (depositor defined):AID1510, AID1524, AID1692, AID1853, AID2332, AID489009, AID489017]. It is filed as functional.

The target of data set [22] is Sphingosine 1-phosphate receptor 1 (Homo sapiens, UniProt P21453). The data set is described as follows: Late stage counterscreen assay for S1P4 antagonists: Fluorescence dose response cell-based screening assay for antagonists of the Sphingosine 1-Phosphate Receptor 1 (S1P1). [Related pubchem assays (depositor defined):AID1510, AID1524, AID1692, AID1853, AID2332, AID489009, AID489017]. The class given is functional.
Sequence of Sphingosine 1-phosphate receptor 1 (P21453 whole entry): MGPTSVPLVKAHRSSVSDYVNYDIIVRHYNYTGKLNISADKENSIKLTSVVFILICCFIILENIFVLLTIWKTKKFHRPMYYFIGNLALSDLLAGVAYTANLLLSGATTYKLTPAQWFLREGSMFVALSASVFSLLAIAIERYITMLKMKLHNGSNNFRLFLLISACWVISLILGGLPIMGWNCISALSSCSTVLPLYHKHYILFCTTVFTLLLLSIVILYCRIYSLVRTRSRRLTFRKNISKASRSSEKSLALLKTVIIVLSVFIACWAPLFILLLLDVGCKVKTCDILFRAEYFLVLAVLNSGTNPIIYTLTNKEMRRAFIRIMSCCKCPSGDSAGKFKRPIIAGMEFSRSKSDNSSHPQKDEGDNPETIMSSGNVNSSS

Data set [23] in a line: Luminescence Cell-Based Dose Retest to Confirm Inhibitors of Cancer Stem Cells. [Related pubchem assays (depositor defined):AID2717, AID2721]. It is filed as functional. Conditions: Homo sapiens.
Data set [24] can be described thus: cytotoxicity in HMLE control line with eGFP shRNA, dose response, counter-screen for HMLE_sh_ECad selective toxicity project, cell-based, HMLE_sh_eGFP, luminescence (AID 463074).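 Note: HMLE human mammary epithelial cells expressing control shRNA against eGFP.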 The class given is functional, Homo sapiens.

Structures are written as SMILES. Active and inactive are the calls of the source.

Usually AC50 stands for the midpoint of the concentration-response curve, whichever way the signal moves. In general, IC50 refers to the concentration needed to halve the response being measured. In general, EC50 refers to the concentration at which the effect is half-maximal.

Sequence of Potassium voltage-gated channel subfamily KQT member 2 (O88943 whole entry): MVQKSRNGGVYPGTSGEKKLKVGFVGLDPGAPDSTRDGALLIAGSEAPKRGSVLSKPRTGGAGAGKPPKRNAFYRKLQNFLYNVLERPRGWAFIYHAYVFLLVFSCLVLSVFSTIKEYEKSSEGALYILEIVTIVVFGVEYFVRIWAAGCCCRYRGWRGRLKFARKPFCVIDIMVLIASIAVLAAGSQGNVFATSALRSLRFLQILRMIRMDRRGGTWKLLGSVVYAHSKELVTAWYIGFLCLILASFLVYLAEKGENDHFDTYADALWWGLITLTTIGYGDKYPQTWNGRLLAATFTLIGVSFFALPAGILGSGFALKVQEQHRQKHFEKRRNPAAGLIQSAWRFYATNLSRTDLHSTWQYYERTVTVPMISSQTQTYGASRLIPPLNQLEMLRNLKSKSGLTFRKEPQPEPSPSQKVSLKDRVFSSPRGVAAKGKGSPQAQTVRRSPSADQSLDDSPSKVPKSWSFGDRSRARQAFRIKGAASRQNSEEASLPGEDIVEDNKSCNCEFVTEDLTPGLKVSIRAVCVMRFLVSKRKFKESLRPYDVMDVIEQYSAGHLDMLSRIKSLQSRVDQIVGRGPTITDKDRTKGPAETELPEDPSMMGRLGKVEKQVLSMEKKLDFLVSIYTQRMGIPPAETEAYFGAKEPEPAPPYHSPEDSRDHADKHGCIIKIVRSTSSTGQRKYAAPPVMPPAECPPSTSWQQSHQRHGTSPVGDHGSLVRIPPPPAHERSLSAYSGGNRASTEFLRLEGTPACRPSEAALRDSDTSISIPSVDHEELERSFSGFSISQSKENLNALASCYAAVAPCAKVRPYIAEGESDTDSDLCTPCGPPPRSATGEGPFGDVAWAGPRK
Sequence of Cytochrome P450 2D6 (P10635 whole entry): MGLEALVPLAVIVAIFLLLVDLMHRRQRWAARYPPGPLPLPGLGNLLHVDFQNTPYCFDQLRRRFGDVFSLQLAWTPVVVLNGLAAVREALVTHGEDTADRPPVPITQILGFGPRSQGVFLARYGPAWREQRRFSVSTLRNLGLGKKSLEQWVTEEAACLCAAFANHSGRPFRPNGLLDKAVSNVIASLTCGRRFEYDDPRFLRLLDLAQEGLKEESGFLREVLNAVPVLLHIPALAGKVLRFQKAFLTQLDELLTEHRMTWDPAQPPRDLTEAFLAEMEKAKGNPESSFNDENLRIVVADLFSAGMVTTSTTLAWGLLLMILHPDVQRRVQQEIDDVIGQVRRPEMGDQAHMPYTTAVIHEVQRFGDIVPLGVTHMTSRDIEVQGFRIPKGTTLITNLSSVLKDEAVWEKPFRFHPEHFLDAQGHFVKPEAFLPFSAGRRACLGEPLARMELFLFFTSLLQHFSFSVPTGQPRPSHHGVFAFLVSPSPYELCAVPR
Sequence of Sphingosine 1-phosphate receptor 3 (Q99500 whole entry): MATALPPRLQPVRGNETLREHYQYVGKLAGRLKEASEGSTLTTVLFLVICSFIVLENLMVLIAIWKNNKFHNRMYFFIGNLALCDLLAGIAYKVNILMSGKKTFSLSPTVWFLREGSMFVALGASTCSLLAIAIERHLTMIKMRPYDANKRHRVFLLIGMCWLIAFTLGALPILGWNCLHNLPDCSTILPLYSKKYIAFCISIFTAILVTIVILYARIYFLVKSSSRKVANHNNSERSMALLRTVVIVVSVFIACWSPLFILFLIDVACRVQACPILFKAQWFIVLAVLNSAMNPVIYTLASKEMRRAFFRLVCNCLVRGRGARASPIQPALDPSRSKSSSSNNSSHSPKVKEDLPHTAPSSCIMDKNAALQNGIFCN

On to `COC1=CC(=O)[C@]2(C=C1OC)OC[C@@H]1Oc3c(ccc4c3C=CC(C)(C)O4)C(=O)[C@@H]12`, for which the AC50 in the data set with INS1 is 0.671 µM (active). Besides, the IC50 in the data set with Jurkat [1] was 28.7 µM (inactive); in [2], 23 µM (inactive).

In the case of `O=C(CCS(=O)(=O)c1ccc(Br)s1)Nc1ccccc1Br`, in data set [3], the EC50 was 20.9 µM (active).

`CC(=O)CC(C)C` [METHYL ISOBUTYL KETONE]: the AC50 in data set [4] is 15.8 µM (inconclusive).

With `Nc1nnc(-c2cccc(Cl)c2Cl)c(N)n1` [LAMOTRIGINE], the results for the AC50 on Cytochrome P450 2D6 and on Cytochrome P450 1A2 were 6.31 µM (active) and “inactive”, respectively.

Take `CCOc1ccc(-c2nc(CSCC(=O)NC3CCCC(C)C3C)c(C)o2)cc1` (configuration not stated): the IC50 is 39.3 µM (inactive) in the data set with Jurkat [5], 38.9 µM (inactive) with HEK293 [6] and 8.81 µM (active) in the data set on HEK293 [7].

On to `O=C1/C(=C/c2ccncc2)CCC/C1=C\c1ccncc1`, for which the EC50 in the data set on BJ was 0.474 µM (active). Also, the “Absolute IC50 (CHOP)” value in data set [8] was 10 µM. Moreover, at X-box-binding protein 1, the “Absolute IC50 (XBP1)” value is 10 µM. The CC50 with HeLa is on record as > 1.22 µM (not active). In addition, the AC50 in data set [9] was 8.7 µM (active).

As to `CCc1ccccc1NC(=O)CCS(=O)(=O)c1ccc(OC)cc1`, the IC50 in data set [10] is 13.9 µM (not active); in [11], 21.1 µM (active); in data set [13], 16.8 µM (not active). The values for the EC50 in data set [12] and in data set [14] were > 195 µM (not active) and 17.8 µM (inactive), respectively.

Consider `COc1ccc(C)c2sc(N(CCN(C)C)C(=O)/C=C/c3cccs3)nc12`, for which the AC50 in the data set on A-375 was 43.2 µM (active). Moreover, the CC50 in data set [15] is 12.7 µM (active). Further, the IC50 in data set [16] was 35.2 µM (inactive).

On to `Cc1ccc(C(=O)COC(=O)CCC(=O)Nc2ccccc2Cl)cc1[N+](=O)[O-]`, for which the EC50 on Beta-galactosidase is > 40 µM (inactive). For the same compound, the IC50 in data set [17] is 22.9 µM (not active).

For the compound `O=C(Nc1ccc(F)cc1F)C1CC2CCC1C2` (configuration not stated), in data set [18], the EC50 was 10 µM (active).

On to `Cc1ccc(S(C)(=O)=O)c(C)c1NC(=O)c1ccc(-c2cc(Cl)ccc2Cl)o1`, for which the IC50 was 13.8 µM (inactive) in data set [19], > 25 µM (inactive) in data set [20], 15.8 µM (inactive) in [21] and > 25 µM (inactive) in data set [22].

As to `C/C(=N\Nc1cccc(Cl)c1)C1(C)N(O)C(C)(C)C(c2ccco2)=[N+]1[O-]` (configuration not stated), the half-maximal activity concentration (AC50) was 1.06 µM (active) in data set [23] and 1.5 µM (inconclusive) in [24].
